Source: US7288573B2, “Method of repelling insects” (priority 2001, dated 2007)
Values joined by “and” are separate entries in the source; they are usually repeats but may differ in a detail not shown here. Equal values may be shown once.

System: Culex spp.
Assay: Mosquito repellency of 2-undecanone and 2-tridecanone, treated arm in cage (Example 6)
Format: in vivo
Conditions: for No. landings: single replicates; for observed repellent / residual activity (words): observed up to 24 hours post-treatment
From the text: Cages. The same two mosquitoes cages described in Example 5 were used for this example. The cages were constructed using wood framing and fine mesh wire screen. The dimensions of each cage were 59 cm high×55 cm wide by 59 cm deep. A hinged access door was installed at the front of each chamber for insertion of the water-filled containers filled with mosquito pupae. Also present at the front of each chamber was a 9 cm diameter plastic tube (i.d.) for insertion of the arm of the investigator. The arm insertion tube was sealed with a rubber stopper when not in use.
Mosquitoes and Mosquito Rearing. Mosquitoes (Culex spp.) were obtained (as pupae and larvae) from Carolina Biological Supply Co., Burlington, N.C., USA in two successive shipments, so as to provide a continuing long term supply of fresh insects. Following their arrival, the mosquitoes were divided into approximately equal numbers in multiple water-filled containers and placed in the two cages described above. The larval and pupal cultures were fed with insect rearing compound. In addition, the water was changed regularly by filtration to minimize contamination and prevent overcrowding. Continuous culturing made it possible to increase the mosquito numbers to more than 100 insects per cage.
Test Compounds and Testing Schedule. Testing was done with two compounds, 2-undecanone, and 2-tridecanone, for repellent activity by treating one arm of the investigator with approximately 1 ml of the test solution. Following several minutes for solvent evaporation, the treated arm was inserted through the insertion tube for 5 minutes. The other arm was treated with isoprbpanol (control) or a different concentration of the compound, and inserted into the insertion tube of the adjacent chamber. Next, the behavior of the mosquitoes in response to the presence of the investigator's arms was noted. Mosquito behavior was recorded as 1) landing or attempting to land on the investigator's arm, or coming to rest on the wire screen immediately adjacent to the investigator's arm or hand, versus 2) dispersal away from the treated arm towards the opposite ends of the cage. The approximate number of mosquitoes present at the beginning of the observations was noted. For treatments with 2-undecanone, observations were made initially to confirm 100% repellent activity of the compound immediately after treatment but observations were not recorded. Recording of efficacy was delayed until 6 hours after treatment, and then repeated at 12 and 24 hours post-treatment. For treatment with 2-tridecanone, the observations commenced immediately after solvent drying; then, the observations were repeated (without re-treatment of the investigator's hand and arm) after 6 hours, 12 hours and 24 hours. Treatments were alternated between the different cages. […]
2-tridecanone was obtained as a solid. To prepare this compound for testing, it was subjected to gentle heating in a 37° C. water bath to liquefy it, and aliquots of the stock were diluted volume: volume with isopropanol to 50% concentration and 20% concentration. Sufficient pure compound was retained for direct application (undiluted).
Tests were done at concentrations of 100%, 50%, and 20% for each of the two compounds, as well as 20% DEET, and the isopropanol control.
Table 3 presents the efficacy found at the different time intervals for each of the compounds at the three different concentrations and for DEET. Efficacy was calculated according to the formula: [(no. landings/no. present in control)−(no. landings/no. present in experinental) divided by (no. landings/no. present in control)]×100.

[1] = 20% concentration, 0 hours after treatment
[2] = 20% concentration, 6 hours after treatment
[3] = 20% concentration, 12 hours after treatment
[4] = 20% concentration, 24 hours after treatment
[5] = 50% concentration, 0 hours after treatment
[6] = 50% concentration, 6 hours after treatment
[7] = 50% concentration, 12 hours after treatment
[8] = 50% concentration, 24 hours after treatment
[9] = 100% concentration, 0 hours after treatment
[10] = 100% concentration, 6 hours after treatment
[11] = 100% concentration, 12 hours after treatment
[12] = 100% concentration, 24 hours after treatment

For CCCCCCCCCCCC(C)=O [2-tridecanone], the “Percent Efficacy Post-Treatment” value (20% concentration, 0 hours) was 1.5%^, the “No. landings, Mean” value [1] was 4.0 and the “Percent = [(No. landings/No. present)] × 100” value [1] was 14.4%. The No. landings [1] was 4 and 3 and 5, the “Percent Efficacy Post-Treatment” value (20% concentration, 6 hours) was 0% and the “No. landings, Mean” value [2] was 4.7. The “Percent = [(No. landings/No. present)] × 100” value [2] was 14.0%, the No. landings [2] was 3 and 4 and 7 and the “Percent Efficacy Post-Treatment” value (20% concentration, 12 hours) was 22.2%. For the same compound, the “No. landings, Mean” value [3] was 4.7, the “Percent = [(No. landings/No. present)] × 100” value [3] was 13.0% and the No. landings [3] was 3 and 5 and 6. The “Percent Efficacy Post-Treatment” value (20% concentration, 24 hours) was 0%, the “No. landings, Mean” value [4] was 5.7 and the “Percent = [(No. landings/No. present)] × 100” value [4] was 14.9%. The No. landings [4] was 5 and 6 (2×), the “observed repellent / residual activity (words)” value (20% concentration) was “repellant activity was not observed” and the “observed repellent / residual activity (words)” value (20% concentration, listed as 2-Tridecanone) was “Comments: No residual repellent activity was observed”. The “Percent Efficacy Post-Treatment” value (50% concentration, 0 hours) was 95.2%, the “No. landings, Mean” value [5] was 0.7 and the “Percent = [(No. landings/No. present)] × 100” value [5] was 0.7%. For the same compound, the “Percent = [(No. landings/No. present)] × 100” value (50% concentration, 0 hours after treatment, listed as 2-Tridecanone) was 2.4%, the No. landings [5] was 0 and 1 (2×) and the “Percent Efficacy Post-Treatment” value (50% concentration, 6 hours) was 67.7%. The “No. landings, Mean” value [6] was 1.3, the “Percent = [(No. landings/No. present)] × 100” value [6] was 4.3% and the “Percent = [(No. landings/No. present)] × 100” value (50% concentration, 6 hours after treatment, listed as 2-Tridecanone) was 4.3%. For the same compound, the No. landings [6] was 3 and 0 and 1, the “Percent Efficacy Post-Treatment” value (50% concentration, 12 hours) was 0% and the “No. landings, Mean” value [7] was 5.7. The “Percent = [(No. landings/No. present)] × 100” value [7] was 19.7%, the No. landings [7] was 7 and 4 and 6 and the “Percent Efficacy Post-Treatment” value (50% concentration, 24 hours) was 0%. The “No. landings, Mean” value [8] was 5.0, the “Percent = [(No. landings/No. present)] × 100” value [8] was 18.7% and the No. landings [8] was 7 and 4 (2×). For the same compound, the “observed repellent / residual activity (words)” value (50% concentration) was “activity greatly diminished or was absent after 12 and 24 hours”, the “Percent Efficacy Post-Treatment” value (100% concentration, 0 hours) was 87.7% and the “No. landings, Mean” value [9] was 1.3. The “Percent = [(No. landings/No. present)] × 100” value [9] was 1.8%, the “Percent = [(No. landings/No. present)] × 100” value (100% concentration, 0 hours after treatment, listed as 2-Tridecanone) was 1.8% and the No. landings [9] was 0 and 1 and 3. The “Percent Efficacy Post-Treatment” value (100% concentration, 6 hours) was 18.1%, the “No. landings, Mean” value [10] was 9.7 and the “Percent = [(No. landings/No. present)] × 100” value [10] was 10.9%. For the same compound, the No. landings [10] was 9 and 10 (2×), the “Percent Efficacy Post-Treatment” value (100% concentration, 12 hours) was 41.9% and the “No. landings, Mean” value [11] was 10.3. The “Percent = [(No. landings/No. present)] × 100” value [11] was 9.7%, the No. landings [11] was 16 and 7 and 8 and the “Percent Efficacy Post-Treatment” value (100% concentration, 24 hours) was 0%. For the same compound, the “No. landings, Mean” value [12] was 15.0, the “Percent = [(No. landings/No. present)] × 100” value [12] was 13.3% and the No. landings [12] was 17 and 15 and 13. For the same compound, the “observed repellent / residual activity (words)” value (100% concentration) was “Comments: The compound was highly repellent. A huge cloud of mosquitoes retreated” and the “overall repellent activity, comparison of the two compounds” value (100%, 50% and 20% concentrations, 0 to 24 hours) was “less effective as a repellent against mosquitoes than 2-undecanone”.
